{
  "source": "patent US20210369583A1",
  "about": "“COMPOSITIONS FOR PROVIDING SKIN CARE BENEFITS AND METHODS OF USE” (Danisco US Inc., priority 2018, published 2021)",
  "type_in_all_cases": "cell-based",
  "key": {"[1]": {"system": "living human skin explants", "assay": "Biochemical assay of MDA (lipid peroxidation) on living human skin explants exposed to pollutants", "experimental": "Product A (Table 11) was diluted in water to obtain the following products at concentrations: product P1=A at 4%, product P2=A at 2% and product P3=A at 1%.\n59 human skin explants of an average diameter of 14 mm (±1 mm) were prepared on an abdoplasty coming from a person. The explants were kept in survival in BEM culture medium at 37° C. in a humid, 5%-CO2 atmosphere.\nThe tested products were topically applied on the basis of 2 μl per cm^2 and spread using a small spatula twice a day (morning and evening) on day 0, 1, 2, 3 and 4.\nOn D4, the explants of the batches ML and PML were placed on the 3D grid with 900 μl of HBSS and placed into the PolluBox® system.\n3 mL of the solution <<ML>> (supplemented with 150 μl/ml of NaCl 0.9%) were exposed by vaporization for 1 hour and half, as shown in the figure below.\nThe MDA assay was realized with an enhanced method of the TBARs (Thiobarbituric Acid Reactive Species) assay. The MDA was assayed in HBSS medium by addition of TBARs solution (thiobarbituric acid, hydrochloric acid and tricholoroacetic acid) and placed in a water bath (80° C. for 15 minutes). A lot of substances (like glucose) which are not related with lipoperoxidation, react with thiobarbituric acid (ThioBarbituric Acid Reagents=TBARS), so to enhance the specificity of the assay, the MDA was extracted by a liquid/liquid extraction with butanol. The MDA in butanol was measured in spectrofluorimetry (excitation: 515 nm, emission: 550 nm) using a Tecan Infinite M200 Pro microplate reader. Using this assay, MDA contained in the culture medium BEMc on […] was measured for the 4 explants per batch. The MDA concentration was expressed in pmol of MDA/ml of the medium. Concerned batches: all batches on day 5, 4 explants per batch.\nThe average of the blank batch TJ5 was calculated (154.0 nmol/L). Then, for each explant of MLJ5, this average value was subtracted from […]. That corresponds to calculating the delta (increase) of MDA induced by ML for each explant compared to the average of the batch without ML, it is ΔML.\nThese average deltas were then compared to the average delta of MDA induction without treatment (ΔML)."}, "[2]": {"system": "human living skin explant", "assay": "TUNEL assay (UV-induced DNA damage) on human living skin explants", "experimental": "(§1) human skin explants of an average diameter of 12 mm (±1 mm) were prepared on an abdoplasty coming from a person). The explants were kept in survival in BEM culture medium at 37° C. in a humid, 5%-CO2 atmosphere.\n(§2) On day 0 (D0), day 1, day 2 and day 3 (3 hours before irradiation), the tested products were applied topically on surface of skin explants at the rate of 2 mg/cm^2, twice a day for D1 and D2 and once on DO and D3. […] The medium was half renewed (1 ml per well) on day 2.\n(§3) On D3, the culture media of all the batches was replaced by HBSS solution (Hank's Balanced Saline Solution; 1 ml per explant). The batches “UV” were irradiated by UVA+ UVB using a UV simulator Vibert Lourmat RMX 3W with a dose of 18 J/cm2 of UVA (4 MED, minimal erythemal dose) and 0.3 J/cm2 of UVB (2 MED). The unirradiated batches were kept in HBSS in the dark. At the end of the irradiation the explants were put back in 2 mL of BEM medium.\n(§4) After fixation for 24 hours in buffered formalin, the samples were dehydrated and impregnated in paraffin using a Leica PEARL dehydration automat. The samples were embedded using a Leica EG 1160 embedding station. 5-μm-thick sections were made using a Leica RM 2125 Minot-type microtome, and the sections were mounted on Superfrost® histological glass slides. The frozen samples were cut into 7-μm-thick sections using a Leica CM 3050 cryostat. Sections were then mounted on Superfrost® plus silanized glass slides. The microscopical observations were realized using a Leica DMLB or Olympus BX43 microscope. Pictures were digitized with a numeric DP72 Olympus camera with CellD storing software.\nDNA oxidization is a type of damage that can be promoted by reactive oxygen species (ROS), generated by UV exposure. […] The staining was assessed by microscopical observation. Batches analyzed were T, TUV, P1UV, P2UV, P3UV at day 4 also referred to as TJ4, TUVJ4, P1UVJ4, P2UVJ4, P3UVJ4 (T=Control batch non treated non irradiated; TJ4=T at Day 4 (D4); TUV: control batch non treated UV irradiated; TUVJ4=[…] at Day 4; P1J4: product A 4% non irradiated at D4; P2J4: product A 2% non irradiated at D4; P3J4: product A 1% non irradiated at D4; P1UV: product A 4% UV irradiated; P1UVJ4: product A 4% UV irradiated at D4 P2UV: product A 2% UV irradiated; P2UVJ4: product A 2% UV irradiated at D4; P3UV: product A 1% UV irradiated; P3UVJ4: product A 1% UV irradiated at D4"}, "[3]": {"system": "human living skin explant", "assay": "Immunostaining of carbonylated proteins (FTZ) on human living skin explants", "details": "UV irradiated", "experimental": "as §1, §2, §3, §4\nProtein carbonylation is a type of protein oxidation that can be promoted by reactive oxygen species (ROS), generated by UV exposure. FTZ marker assay was conducted by immunostaining in the living epidermis of human skin explant as follows: Carbonylated proteins were stained on frozen sections with the anti-carbonylated proteins probe (fluorescein-5-thiosemicarbazid-FTZ) (Lifetechnologies, Ref. F-121) diluted at 0.5 μM in MES-Na+ and incubated for 30 minutes in the dark and at room temperature. The staining was observed by epifluorescence and assessed by microscopical observations. Batches analyzed were T, TUV, P1UV, P2UV, P3UV at day 4 also referred to as TJ4, TUVJ4, P1UVJ4, P2UVJ4, P3UVJ4"}, "[4]": {"system": "human living skin explant", "assay": "Cell viability of human living skin explants (UV study)", "details": "day 4", "experimental": "as §1, §2, §3, §4"}, "[5]": {"system": "Reconstructed Human Epidermis (RHE)", "assay": "Caffein diffusion test on Reconstituted Human Epidermis (RHE)", "details": "for caffein diffusion through RHE: systemic treatment", "experimental": "By measuring the amount of […] […] The epidermis used was a Reconstructed Human Epidermis, called “RHE”, 0-day-old, batch no 01015-444, placed in culture conditions 37° C., 5% CO2. The assay medium was the Bioalternatives maintenance medium. RHE at Day 0 (when placed at the air/liquid interface) were placed in assay medium containing or not (control) the compounds, the combination or the reference (vitamin C at 200 μg/ml). This is referred to as a systemic application, to be differentiated from a topical application. RHE were then incubated for 7 days with treatment renewal at Day 3 and Day 5. All experimental conditions were performed in n=3. At the end of incubation (Day 7), radioactive […] ([^14[…] applied on the surface of each epidermis. The radioactivity contained in subnatants was measured by liquid scintillation after 30 minutes, 1, 2, 3, 4, 5, 6, 7 and 8 hours of incubation. The barrier function is calculated according to the below formula:"}},
  "note": "Marks after values point to notes of the source that are not given here.",
  "data": [
    {"smiles": "O=C(O)[C@@H]1CCCN1", "note": "[Combination P5, L-Proline]", "values": [
      {"measurement": "MDA, variation ΔPML vs ΔML", "setting": "[1]; MDA induction by pollutants, day 5", "result": "−48", "unit": "%*"},
      {"measurement": "reduction of the increase of MDA", "setting": "[1]; after pollutant exposure (ΔPML vs ΔML)", "result": 48, "unit": "%"},
      {"measurement": "MDA, variation PML vs ML", "setting": "[1]; after pollutants exposure, day 5", "result": "−14", "unit": "% #"},
      {"measurement": "activity against UV-induced DNA damage", "setting": "[2]; UV irradiated", "result": "totally inhibits the increase of DNA damage"},
      {"measurement": "DNA damage (TUNEL), variation vs TJ4", "setting": "[2]; non irradiated, day 4", "result": "↔ (indicates no variation)"},
      {"measurement": "effect on UV-induced carbonylated proteins", "setting": "[3]", "result": "slightly inhibits the formation of carbonylated proteins"},
      {"measurement": "Cell Viability, variation vs TUVJ4", "setting": "[4]; UV irradiated", "result": "↔ (indicates no variation)"},
      {"measurement": "Cell Viability, variation vs TJ4", "setting": "[4]; non irradiated", "result": "↔ (indicates no variation)"}
    ]},
    {"smiles": "C[N+](C)(C)CC(=O)O", "note": "[betaine]", "values": [
      {"measurement": "Barrier function % Control", "setting": "[5]; 0.5 hrs, 10 mg/ml", "result": 97, "unit": "%"},
      {"measurement": "Mean [14C]-caffein (cpm)", "setting": "[5]; 0.5 hrs, 10 mg/ml", "result": 20507, "unit": "cpm"},
      {"measurement": "[14C]-caffein % Control", "setting": "[5]; 0.5 hrs, 10 mg/ml", "result": 104, "unit": "%"},
      {"measurement": "Barrier function % Control", "setting": "[5]; 1 hrs, 10 mg/ml", "result": 91, "unit": "%"},
      {"measurement": "Mean [14C]-caffein (cpm)", "setting": "[5]; 1 hrs, 10 mg/ml", "result": 50356, "unit": "cpm"},
      {"measurement": "[14C]-caffein % Control", "setting": "[5]; 1 hrs, 10 mg/ml", "result": 110, "unit": "%"},
      {"measurement": "Barrier function % Control", "setting": "[5]; 2 hrs, 10 mg/ml", "result": 85, "unit": "%"},
      {"measurement": "Mean [14C]-caffein (cpm)", "setting": "[5]; 2 hrs, 10 mg/ml", "result": 117502, "unit": "cpm"},
      {"measurement": "[14C]-caffein % Control", "setting": "[5]; 2 hrs, 10 mg/ml", "result": 117, "unit": "%"},
      {"measurement": "Barrier function % Control", "setting": "[5]; 3 hrs, 10 mg/ml", "result": 87, "unit": "%"},
      {"measurement": "Mean [14C]-caffein (cpm)", "setting": "[5]; 3 hrs, 10 mg/ml", "result": 156579, "unit": "cpm"},
      {"measurement": "[14C]-caffein % Control", "setting": "[5]; 3 hrs, 10 mg/ml", "result": 114, "unit": "%"},
      {"measurement": "Barrier function % Control", "setting": "[5]; 4 hrs, 10 mg/ml", "result": 91, "unit": "%"},
      {"measurement": "Mean [14C]-caffein (cpm)", "setting": "[5]; 4 hrs, 10 mg/ml", "result": 173278, "unit": "cpm"},
      {"measurement": "[14C]-caffein % Control", "setting": "[5]; 4 hrs, 10 mg/ml", "result": 110, "unit": "%"},
      {"measurement": "Barrier function % Control", "setting": "[5]; 5 hrs, 10 mg/ml", "result": 92, "unit": "%"},
      {"measurement": "Mean [14C]-caffein (cpm)", "setting": "[5]; 5 hrs, 10 mg/ml", "result": 186588, "unit": "cpm"},
      {"measurement": "[14C]-caffein % Control", "setting": "[5]; 5 hrs, 10 mg/ml", "result": 108, "unit": "%"},
      {"measurement": "Barrier function % Control", "setting": "[5]; 6 hrs, 10 mg/ml", "result": 93, "unit": "%"},
      {"measurement": "Mean [14C]-caffein (cpm)", "setting": "[5]; 6 hrs, 10 mg/ml", "result": 193499, "unit": "cpm"},
      {"measurement": "[14C]-caffein % Control", "setting": "[5]; 6 hrs, 10 mg/ml", "result": 107, "unit": "%"},
      {"measurement": "Barrier function % Control", "setting": "[5]; 7 hrs, 10 mg/ml", "result": 96, "unit": "%"},
      {"measurement": "Mean [14C]-caffein (cpm)", "setting": "[5]; 7 hrs, 10 mg/ml", "result": 196233, "unit": "cpm"},
      {"measurement": "[14C]-caffein % Control", "setting": "[5]; 7 hrs, 10 mg/ml", "result": 104, "unit": "%"},
      {"measurement": "Barrier function % Control", "setting": "[5]; 8 hrs, 10 mg/ml", "result": 99, "unit": "%"},
      {"measurement": "Mean [14C]-caffein (cpm)", "setting": "[5]; 8 hrs, 10 mg/ml", "result": 195439, "unit": "cpm"},
      {"measurement": "[14C]-caffein % Control", "setting": "[5]; 8 hrs, 10 mg/ml", "result": 101, "unit": "%"},
      {"measurement": "caffein diffusion through RHE", "setting": "[5]; 3 mg/ml", "result": "induced a decrease of caffein diffusion through the RHE only after 30 minutes"},
      {"measurement": "caffein diffusion through RHE", "setting": "[5]; 10 mg/ml", "result": "No inhibitory effect"}
    ]},
    {"smiles": "O=C1O[C@H]([C@@H](O)CO)C(O)=C1O", "note": "[vitamin C]", "values": [
      {"measurement": "caffein diffusion through RHE", "setting": "[5]; 200 μg/ml", "result": "decreased significantly this diffusion"}
    ]}
  ]
}
